Laboratory results as given in patent EP1828393B1 (priority 2004, dated 2006).

Assay: Miscibility of glycolonitrile with water
Assay type: physicochemical
Conditions: 25 °C
Source text: As the reaction progresses, the α-hydroxynitrile dissolves into the aqueous phase, and eventually a single phase product mixture is obtained. The reaction may also be run by adding the α-hydroxynitrile to the reaction mixture at a rate approximately equal to the enzymatic hydrolysis reaction rate, thereby maintaining a single-phase aqueous reaction mixture, and avoiding the potential problem of substrate inhibition of the enzyme at high starting material concentrations.

Question: Which miscibility with water does the source give for N#CCO [Glycolonitrile, glycolonitrile] here?
Answer: completely miscible with water in all proportions
